Measurements reported in patent publication US20140328826A1, “PRODUCT AND METHOD FOR TREATING KELOID SCARS, HYPERTROPHIC SCARS AND BURN SCARS WITH CONTRACTURE” (COLE Research & Design, Inc., priority 2013, published 2014).

System: keloid scar
Assay: Intralesional injection of the pharmaceutical composition into keloid scars of patients
Assay type: in vivo, human
Details: injected into the keloid scar; general statement, 'often'
Description: A pharmaceutical composition was prepared by mixing 1.0 mg of high molecular weight hyaluronic acid (0.1 cc of HYALGAN®, sodium hyaluronate) with 7.5 units of hyaluronidase (HYLENEX® recombinant human hyaluronidase), which was injected into the keloid scar. […] Erythema and tenderness of the keloid scar was also resolved.
A pharmaceutical composition was prepared as in Example 1, and injected into the keloid scar.
The patient also reported a sharp, piercing pain from the keloid scar. A pharmaceutical composition was prepared as in Example 1, and injected into the keloid scar.
A fourth patient had two keloid scars, one on each earlobe. A pharmaceutical composition was prepared as in Example 1, and injected into each of the keloid scars. […] Some itching was reported by the patient.
All four patients responded to the treatment. Overall, there was significant reduction in keloid scar size, with an average of approximately a 22% reduction in length, a 37% reduction in width, and a 45% reduction in height. Even more striking was great reduction in density and hardness of the keloid scar tissue, leaving a soft pliable skin sack after treatment.
Only a few mild adverse reactions were reported. Two patients reported very mild itching from the keloid scars. Some stinging from the injection was also reported. No significant pain or swelling was reported.

low molecular weight hyaluronic acid
shrinkage of keloid scar volume: ≥ 50%
